The subject of test [1] is Bel-7402. In words: Compound was tested for its cytotoxic activity against human Bel-7402 Hepatocellular carcinoma cell line. It counts as functional. Conditions: read-out: ID50 (the source's name).
The subject of test [2] is HL-60. In words: Compound was tested for its cytotoxic activity against human HL-60 promyelocytic leukemia cell line. It counts as functional. Particulars: read-out: ID50 (the source's name).

In brackets after ≈: the same amount, converted by molar mass.

Turning to `C=C1C(=O)O[C@@H]2CC(C)=C([C@@H](C)CCCOC(C)=O)[C@H](OC(=O)/C(Cc3ccccc3)=N/OCCCC)[C@H]12`, the figures for the IC50 in test [1] and in test [2] were 7.2 µg/mL (≈ 13.7 µM) and 4.3 µg/mL (≈ 8.18 µM), respectively.

Regarding `C=C1C(=O)O[C@@H]2CC(C)=C([C@@H](C)CCCOC(C)=O)[C@H](O)[C@H]12`, the IC50 came to 15.6 µg/mL (≈ 50.6 µM) in test [1] and 18.4 µg/mL (≈ 59.7 µM) in test [2].
